Reference: patent US10138211B2, “Crystalline forms of olaparib and manufacturing processes therefor” (ScinoPharm Taiwan, Ltd., priority 2016, dated 2018)
In brackets after ≈: the same amount, converted by molar mass.

Experiments:
[1] = Solubility of olaparib at 60° C. in solvents; format: physicochemical
Procedure: (§1) As used herein, the term “solvent” refers to a liquid substance capable of dissolving olaparib at a concentration of at least about 2.5% (w/w) at 60° C. The term “anti-solvent” refers to a liquid substance which is not capable of dissolving olaparib at a concentration of […] about 2.5% (w/w) at 60° C.

[2] = Solubility of olaparib at room temperature in solvents; format: physicochemical; conditions: for solubility: organic solvent or mixture
Procedure: as §1

Solubility of olaparib at 60° C. ([1]; ACN): <2.1 wt %
Solubility of olaparib at 60° C. ([1]; Cyclohexane): <2.1 wt %
Solubility of olaparib at 60° C. ([1]; DMAc): >23.5 wt %
Solubility of olaparib at 60° C. ([1]; EA): <1.8 wt %
Solubility of olaparib at 60° C. ([1]; EtOH): 2.6-2.9 wt %
Solubility of olaparib at 60° C. ([1]; IPA): <2.1 wt %
Solubility of olaparib at 60° C. ([1]; MeOH): 6.7-8.8 wt %
Solubility of olaparib at 60° C. ([1]; Pyridine): >21.5 wt %
Solubility of olaparib at 60° C. ([1]; THF): <1.9 wt %
Solubility of olaparib at 60° C. ([1]; Toluene): <1.9 wt %
Solubility of olaparib at 60° C. ([1]; Xylenes): <1.9 wt %
solubility ([1]; acetonitrile (ACN), organic solvent or mixture, ACN): < 16.2 mg/mL
solubility ([1]; ethanol (EtOH), organic solvent or mixture, EtOH): 21 to 23 mg/mL (≈ 48.3 to 52.9 mM)
solubility ([1]; isopropanol (IPA), organic solvent or mixture, IPA): < 16.2 mg/mL
solubility ([1]; methanol (MeOH), organic solvent or mixture, MeOH): 53 to 70 mg/mL (≈ 122 to 161 mM)
Solubility of olaparib at 60° C. ([1]; n-butanol): <2.1 wt %
Solubility of olaparib at 60° C. ([1]; n-heptane): <2.4 wt %
solubility ([1]; organic solvent or mixture, Cyclohexane): < 16.2 mg/mL
solubility ([1]; organic solvent or mixture, DMAc): > 220 mg/mL
solubility ([1]; organic solvent or mixture, EA): < 16.2 mg/mL
solubility ([1]; organic solvent or mixture, Pyridine): > 210 mg/mL
solubility ([1]; organic solvent or mixture, THF): < 16.9 mg/mL
solubility ([1]; organic solvent or mixture, Toluene): < 16.9 mg/mL
solubility ([1]; organic solvent or mixture, Xylenes): < 16.2 mg/mL
solubility ([1]; organic solvent or mixture, n-butanol): < 16.9 mg/mL
solubility ([1]; organic solvent or mixture, n-heptane): < 16.2 mg/mL
Solubility of olaparib at 60° C. ([1]; water): <1.6 wt %
solubility ([1]; water): < 16.2 mg/mL
Solubility of olaparib at room temperature ([2]; AcOH): >20.0 wt %
Solubility of olaparib at room temperature ([2]; DMSO): >19.1 wt %
solubility ([2]; acetic acid (AcOH), AcOH): > 210 mg/mL
solubility ([2]; DMSO): > 210 mg/mL
Structure (SMILES): O=C(c1cc(Cc2n[nH]c(=O)c3ccccc23)ccc1F)N1CCN(C(=O)C2CC2)CC1 [olaparib, 4-[(3-[(4-cyclopropylcarbonyl)piperazin-4-yl]carbonyl)-4-fluorophenyl]methyl(2H)phthalazin-1-one]
